In patent US10308631B2, “Selective anti-cancer compounds” (NATIONAL UNIVERSITY OF SINGAPORE, priority 2015, dated 2019):

Legend:
Assay in all cases: MTT growth inhibition (GI50)
Assay type in all cases: cell-based
A549 = details: Homo sapiens, A549, cancer (others), 72 h
Protocol: (§1) Having shown that Compound 1 and its derivatives are effective against HeLa cervical cancer cells and human fibroblast BJ cell lines, Compound 1 was then tested against a panel of thirty different human cancer cells lines derived from gastric, colon, liver, breast, lung and cervical tumours and five different human normal cell lines, which were normal fibroblast cell lines (BJ normal, IMR90, WI38) and retinal pigmented epithelium cell lines (ARPE-19, hTert-immortalized RPE-1).
(§2) The cell lines detailed in Table 2, below, were cultured in the media shown and treated with Compound 1 at a range of different concentrations (from 0.1 μM to 10 μM) for 72 h in triplicate and a mean concentration value for Compound 1 to achieve 50% growth inhibition (GI50) in each cell line was determined by use of the MTT assay.
(§3) The MTT assay was performed by adding thiazolyl blue tetrazolium bromide (MTT reagent, Invitrogen) at a concentration of 0.5 mg/mL to each cell culture and the resulting mixture incubated for 4 h at 37° C. The medium was then removed, and the blue dye remaining in each well was dissolved in DMSO by mixing with a microplate mixer. The absorbance of each well at 540 nm and 660 nm was measured using a microplate reader (Benchmark plus, BIO-RAD). The optical density (OD) values were calculated by subtracting the absorbance at 660 nm from the absorbance at 540 nm. Mean OD values from control cells containing only DMSO treated wells were set as 100%. The resulting GI50 values (in μM) are set out in Table 2 below.

SNU449 = details: Homo sapiens, SNU-449, SNU449, liver cancer, 72 h
Protocol: as §1, §2, §3

HeLa = details: Homo sapiens, cancer (others), 72 h
Protocol: as §1, §2, §3

HCT15 = details: Homo sapiens, HCT-15, HCT15, colon cancer, 72 h
Protocol: as §1, §2, §3

MKN45 = details: Homo sapiens, MKN-45, MKN45, gastric cancer, 72 h
Protocol: as §1, §2, §3

ARPE-19 = details: Homo sapiens, ARPE-19, normal cell line, 72 h
Protocol: as §1, §2, §3

IST1 = details: Homo sapiens, IST1, gastric cancer, 72 h
Protocol: as §1, §2, §3

SNU1750 = details: Homo sapiens, SNU1750, gastric cancer, 72 h
Protocol: as §1, §2, §3

MDA-MB-231 = details: Homo sapiens, MDA-MB-231, breast cancer, 72 h
Protocol: as §1, §2, §3

NUGC4 = details: Homo sapiens, NUGC-4, NUGC4, gastric cancer, 72 h
Protocol: as §1, §2, §3

RPE-1/h-Tert = details: Homo sapiens, normal cell line, 72 h
Protocol: as §1, §2, §3

HGC27 = details: Homo sapiens, HGC-27, HGC27, gastric cancer, 72 h
Protocol: as §1, §2, §3

NCC24 = details: Homo sapiens, NCC24, gastric cancer, 72 h
Protocol: as §1, §2, §3

SNU620 = details: Homo sapiens, SNU620, gastric cancer, 72 h
Protocol: as §1, §2, §3

Hep3 = details: Homo sapiens, Hep3, liver cancer, 72 h
Protocol: as §1, §2, §3

Huh7 = details: Homo sapiens, Huh-7, Huh7, liver cancer, 72 h
Protocol: as §1, §2, §3

IMR90 = details: Homo sapiens, IMR-90, IMR90, normal cell line, 72 h
Protocol: as §1, §2, §3

HT29 = details: Homo sapiens, HT-29, HT29, colon cancer, 72 h
Protocol: as §1, §2, §3

NUGC3 = details: Homo sapiens, NUGC-3, NUGC3, gastric cancer, 72 h
Protocol: as §1, §2, §3

SCH = details: Homo sapiens, gastric cancer, 72 h
Protocol: as §1, §2, §3

AZ521 = details: Homo sapiens, AZ-521, AZ521, gastric cancer, 72 h
Protocol: as §1, §2, §3

WI38 = details: Homo sapiens, WI-38, WI38, normal cell line, 72 h
Protocol: as §1, §2, §3

SGCC-GC38 = details: Homo sapiens, SGCC-GC38, gastric cancer, 72 h
Protocol: as §1, §2, §3

AGS = details: Homo sapiens, gastric cancer, 72 h
Protocol: as §1, §2, §3

IM95 = details: Homo sapiens, IM95, gastric cancer, 72 h
Protocol: as §1, §2, §3

DLD1 = details: Homo sapiens, DLD-1, DLD1, colon cancer, 72 h
Protocol: as §1, §2, §3

BJ Normal = details: Homo sapiens, normal cell line, 72 h
Protocol: as §1, §2, §3

SNU-16 = details: Homo sapiens, SNU-16, gastric cancer, 72 h
Protocol: as §1, §2, §3

U2OS = details: Homo sapiens, cancer (others), 72 h
Protocol: as §1, §2, §3

NCC59 = details: Homo sapiens, NCC59, gastric cancer, 72 h
Protocol: as §1, §2, §3

SNU1 = details: Homo sapiens, SNU1, gastric cancer, 72 h
Protocol: as §1, §2, §3

SNU216 = details: Homo sapiens, SNU-216, SNU216, gastric cancer, 72 h
Protocol: as §1, §2, §3

MCF7 = details: Homo sapiens, MCF7, breast cancer, 72 h
Protocol: as §1, §2, §3

HCT116 = details: Homo sapiens, HCT-116, HCT116, colon cancer, 72 h
Protocol: as §1, §2, §3

## N#C/C(=C\c1cccc2cnccc12)c1c[nH]c2ccccc12 [Compound 1, (Z)-2-(1H-indol-3-yl)-3-(isoquinolin-5-yl)acrylonitrile]
A549
  GI50: 2 µM
SNU449
  GI50: 2.3 µM
HeLa
  GI50: 1.4 µM
HCT15
  GI50: 0.5 µM
MKN45
  GI50: 1 µM
ARPE-19
  GI50: > 10 µM
IST1
  GI50: 2.2 µM
SNU1750
  GI50: 0.7 µM
MDA-MB-231
  GI50: 1.1 µM
NUGC4
  GI50: > 10 µM
RPE-1/h-Tert
  GI50: 5.2 µM
HGC27
  GI50: 1.2 µM
NCC24
  GI50: 1.2 µM
SNU620
  GI50: 1 µM
Hep3
  GI50: 3.7 µM
Huh7
  GI50: 1.2 µM
IMR90
  GI50: 5.8 µM
HT29
  GI50: 0.9 µM
NUGC3
  GI50: 1 µM
SCH
  GI50: 1.7 µM
AZ521
  GI50: 2.4 µM
WI38
  GI50: 3.4 µM
SGCC-GC38
  GI50: 1.9 µM
AGS
  GI50: 1.1 µM
IM95
  GI50: 1 µM
DLD1
  GI50: 1.2 µM
BJ Normal
  GI50: 8.1 µM
SNU-16
  GI50: 1 µM
U2OS
  GI50: 1.5 µM
NCC59
  GI50: 0.9 µM
SNU1
  GI50: 0.9 µM
SNU216
  GI50: 1.9 µM
MCF7
  GI50: 1.2 µM
HCT116
  GI50: 1.8 µM
